What all share (assay): NCI anticancer screen, dose series, 48 h
Experiment [1] concerns 786-0.
Experiment [2] relates to A498.
The test system of experiment [3] is A549.
Experiment [4] concerns CCRF-CEM.
For experiment [5], the system named is HL-60.
Experiment [6] relates to NCI-H460.
For experiment [7], the system named is RPMI-8226.
The subject of experiment [8] is SF-295.
Experiment [9] relates to SK-MEL-2.
Experiment [10] relates to SNB-19.
Experiment [11] has as its system SR.
For experiment [12], the system named is U-251.
Experiment [13] has as its system NCI-H23.
Experiment [14] deals with SF-268.
Experiment [15] relates to SK-MEL-28.
Experiment [16] has as its system BT-549.
Experiment [17] deals with DU-145.
Experiment [18] deals with MDA-MB-231.
Experiment [19] relates to Hs-578T.
Experiment [20] deals with MDA-N.

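In this assay, cells in 96-well plates receive the compound at five concentrations for 48 hours. Endpoints are linearly interpolated between the surrounding concentrations. GI50 = concentration required for 50% inhibition of growth.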 The source made the active and inactive calls. Rule as the data show it: active = GI50 up to about 1.1 µM and inactive = higher.

On to `CC(/C(=N\Nc1ccccc1)c1ccc(O)cc1)C1C(=O)Oc2ccccc21` (stereo unspecified), for which the GI50 in experiment [1], in experiment [2], in [3], in experiment [4], in experiment [5] and in experiment [6] was > 100 µM (inactive) each time. In addition, the GI50 in experiment [7], in experiment [8], in [9], in experiment [10], in experiment [11] and in [12] was > 100 µM (inactive) in each case.

With `CC(=O)NC(C=O)C(O[C@H](C)C(=O)NC(C)C(=O)NC(CCC(N)=O)C(=O)OCc1ccccc1)C(O)C(O)COC(=O)CCNc1c2ccccc2nc2cccc([N+](=O)[O-])c12` (stereo partly specified), the GI50 in [1] is 4.56 µM (inactive); in experiment [2], > 100 µM (inactive); in experiment [3], 2.23 µM (inactive); in [4], 1.94 µM (inactive); in experiment [5] it was 11.5 µM (inactive); in [13], 2.47 µM (inactive). Also, the GI50 in [6] was 1.73 µM (inactive); in [7], 1.63 µM (inactive); in experiment [14] it was 1.79 µM (inactive); in [8] it was 13.1 µM (inactive); in experiment [15], 3.19 µM (inactive); in [9], 1.63 µM (inactive). For the same compound, the GI50 in experiment [10] is 4.49 µM (inactive); in [11], 0.637 µM (active); in [12], 2.56 µM (inactive).

Consider `CC1=C(SCc2ccccc2)C(=O)c2ccccc2C1=O`, for which the GI50 in experiment [1] is 13.2 µM (inactive); in experiment [2] it was 24 µM (inactive); in experiment [16], 16.7 µM (inactive); in experiment [4], 2.9 µM (inactive); in experiment [17] it was 19.8 µM (inactive); in [5] it was 3.73 µM (inactive). The GI50 in experiment [18] was 17.1 µM (inactive); in experiment [13], 17.9 µM (inactive); in [6], 21.8 µM (inactive); in experiment [7], 2.42 µM (inactive); in [14] it was 16.7 µM (inactive); in [8] it was 18.1 µM (inactive). Further, the GI50 in experiment [15] was 19.2 µM (inactive); in experiment [9], 17.8 µM (inactive); in experiment [12], 16.8 µM (inactive).

Regarding `CC(=O)OCC1OC(N2C(=O)[C@@H](Oc3ccccc3)[C@H]2/C=C/c2ccccc2)C(OC(C)=O)C(OC(C)=O)C1OC(C)=O` (stereo partly specified), the GI50 in [1] is > 100 µM (inactive); in experiment [2], 72.4 µM (inactive); in experiment [3], > 100 µM (inactive); in experiment [4] it was > 100 µM (inactive); in experiment [5] it was > 100 µM (inactive); in experiment [13], > 100 µM (inactive). For the same compound, the GI50 in [6] is > 100 µM (inactive); in experiment [7] it was > 100 µM (inactive); in [14] it was 72.4 µM (inactive); in [8], 53.6 µM (inactive); in experiment [15], > 100 µM (inactive); in experiment [9], > 100 µM (inactive). The results for the GI50 in [10], in experiment [11] and in experiment [12] were 31.6 µM (inactive), > 100 µM (inactive) and 58.9 µM (inactive), respectively.

Consider `CN(C)CCNC(=O)Cn1ccc(=O)c2cc([N+](=O)[O-])ccc21`, for which the GI50 in experiment [1], in [2], in experiment [3], in experiment [4], in experiment [17] and in experiment [5] was > 100 µM (inactive) in each case. For the same compound, the GI50 in experiment [19], in experiment [20], in [13], in experiment [6], in [7] and in [14] was > 100 µM (inactive) throughout. The GI50 in [8], in experiment [15], in experiment [9], in experiment [10], in [11] and in [12] was > 100 µM (inactive) throughout.

For `Cc1nnc(N/N=C2/C(=O)Nc3c(Cl)cc(Cl)cc32)n1N`, the GI50 in experiment [1] is > 100 µM (inactive); in experiment [2] it was > 100 µM (inactive); in experiment [3], > 100 µM (inactive); in experiment [4] it was 57.5 µM (inactive); in experiment [5], > 100 µM (inactive); in [13] it was > 100 µM (inactive). The GI50 in experiment [6], in experiment [7], in experiment [14], in experiment [8], in experiment [15] and in experiment [9] was > 100 µM (inactive) in each case. For the same compound, the GI50 is > 100 µM (inactive) in [10], 73.8 µM (inactive) in experiment [11] and > 100 µM (inactive) in [12].

Regarding `C/C=C\C(CC(=O)OC)CC(=O)N(CCC1CN(S(=O)(=O)C(F)(F)F)c2ccccc21)Cc1ccc(OC)cc1OC` (stereo unspecified), the GI50 in experiment [1] was > 100 µM (inactive); in experiment [2] it was > 100 µM (inactive); in [3] it was 77.4 µM (inactive); in [16], > 100 µM (inactive); in experiment [18] it was > 100 µM (inactive); in experiment [20] it was > 100 µM (inactive). The GI50 was > 100 µM (inactive) in experiment [13]; 73.1 µM (inactive) in [6]; 61.7 µM (inactive) in experiment [7]; > 100 µM (inactive) in [14]; > 100 µM (inactive) in experiment [8]; > 100 µM (inactive) in experiment [15]. Also, the GI50 in [9], in experiment [10] and in experiment [12] was > 100 µM (inactive) throughout.

In the case of `CN(C)/C=N/c1nc2ncn(CCOC(=O)c3ccccc3)c2c(=O)[nH]1`, the GI50 in experiment [1], in [2], in experiment [3], in experiment [4], in experiment [5] and in [6] was > 100 µM (inactive) in each case. Moreover, the GI50 in experiment [7], in experiment [14], in [8], in [15], in experiment [9] and in experiment [11] was > 100 µM (inactive) each time. The GI50 in [12] is > 100 µM (inactive).

Turning to `CN(C)/C=C1\CCc2ccc([N+](=O)[O-])cc2C1=O`, the GI50 in [1] was 48.6 µM (inactive); in experiment [2], > 100 µM (inactive); in [3] it was > 100 µM (inactive); in experiment [4], 19.8 µM (inactive); in experiment [17], > 100 µM (inactive); in experiment [5] it was 25.7 µM (inactive). For the same compound, the GI50 was > 100 µM (inactive) in experiment [19]; 17.4 µM (inactive) in [18]; 19.2 µM (inactive) in experiment [20]; 53.6 µM (inactive) in experiment [13]; 28.4 µM (inactive) in [6]; 27.4 µM (inactive) in experiment [7]. For the same compound, the GI50 in [14] is > 100 µM (inactive); in [8], > 100 µM (inactive); in [15], > 100 µM (inactive); in experiment [9], > 100 µM (inactive); in experiment [10], > 100 µM (inactive); in [11], 31 µM (inactive). Moreover, the GI50 in experiment [12] is 75.7 µM (inactive).

On to `Sc1ncnc2nc[nH]c12` [MERCAPTOPURINE ANHYDROUS], for which the GI50 is 2.03 µM (inactive) in [1]; 58.7 µM (inactive) in [2]; 30.1 µM (inactive) in experiment [3]; 1.26 µM (inactive) in [4]; 2.51 µM (inactive) in experiment [17]; 2.44 µM (inactive) in experiment [5]. For the same compound, the GI50 was 14.2 µM (inactive) in experiment [19]; 24.4 µM (inactive) in experiment [18]; 1.78 µM (inactive) in [20]; 3.89 µM (inactive) in experiment [13]; 5.53 µM (inactive) in experiment [6]; 1.76 µM (inactive) in [7]. For the same compound, the GI50 in experiment [14] is 4.11 µM (inactive); in experiment [8], 5.81 µM (inactive); in experiment [15] it was 372 µM (inactive); in experiment [9], 5.97 µM (inactive); in experiment [10] it was 128 µM (inactive); in experiment [11], 1.24 µM (inactive). In experiment [12], the GI50 was 13.7 µM (inactive).

Regarding `O=C(c1ccc(Cl)cc1Cl)C1[C@H]2C(=O)N(c3ccc(Cc4ccc(N5C(=O)[C@@H]6ON(c7ccccc7)C(C(=O)c7ccc(Cl)cc7Cl)[C@@H]6C5=O)cc4)cc3)C(=O)[C@H]2ON1c1ccccc1` (stereo partly specified), the GI50 in experiment [1], in experiment [2], in [3], in [4], in experiment [5] and in experiment [13] was > 50 µM (inactive) in each case. Moreover, the GI50 in experiment [6], in [7], in experiment [14], in [8], in experiment [15] and in experiment [9] was > 50 µM (inactive) in each case. Also, the GI50 in experiment [10], in [11] and in experiment [12] was > 50 µM (inactive) throughout.

For the compound `COC(=O)CC1C[C@H](C#N)N(C(=O)c2ccccc2)C[C@@H]1CC[N+](=O)[O-]` (stereo partly specified), the GI50 in experiment [1], in [2], in experiment [3], in experiment [4], in experiment [5] and in experiment [13] was > 100 µM (inactive) each time. The GI50 is > 100 µM (inactive) in experiment [6]; > 100 µM (inactive) in experiment [7]; > 100 µM (inactive) in [14]; > 100 µM (inactive) in [8]; > 100 µM (inactive) in [15]; 0.0546 µM (active) in [9]. Moreover, the GI50 in experiment [10], in [11] and in experiment [12] was > 100 µM (inactive) in each case.

Values taken from ChEMBL document CHEMBL1201862, “PubChem BioAssay data set” (2004).
